{"source": "patent US20140120191A1", "about": "“METHOD OF TREATING A DISORDER ASSOCIATED WITH S[…]” (BEECH TREE LABS INC., priority 2011, published 2014)", "tested_on": "R. equi", "test": "R. equi intrabronchial challenge model of pneumonia in foals", "type": "in vivo", "details": "SLO 2 IU subcutaneous twice a day without antibiotics", "procedure": "Animals: 24 foals (average age 4 +/− days old) were used in this challenge model and two additional foals served as uninfected controls. The foals were raised on a Veterinary Science farm and kept with their mares throughout the study. Foals were evaluated shortly after birth for inclusion in the study using the following criteria; normality in physical examination, absence of lung sounds on auscultation, normal temperature, and unremarkable ultrasound examination of the lungs. None of the foals received anti-rhodococcal plasma or other treatments prior to enrollment in the study. The foals were moved with their dams to individual box stalls in a BSL2 isolation facility. Baseline values for heart rate, respiratory rate, temperature, fibrinogen concentration, and leukocyte count were obtained. […]\nAfter the foals were sedated, a flexible fiberoptic endoscope was used to deliver the bacteria suspended in 35 ml of sterile PBS into both main bronchi. […] The foals were returned to their stalls and dams and monitored daily for changes in rectal temperature, respiration, and pulse as determined by physical exam and auscultation of the lungs. […] Clinical signs recorded included lung auscultations, overall attitude, appetite, resting respiratory rate and pulse. […] Daily observation of attitude, appetite, lung auscultation were scored (0-4) and combined to generate an overall daily score for each foal. […]", "note": "Entries after “also recorded” stand apart in the source; their conditions may differ.", "data": [{"substance": "streptolysin O [SLO alone]", "values": [{"measurement": "treatment effect / clinical course", "value": "deteriorated rapidly and required early euthanasia; also recorded: no treatment effect"}]}]}
